Measured values: US20250186634A1, “METHODS OF TREATING SMALL CELL LUNG CANCER” (Evergreen Discovery, LLC., priority 2023, published 2025)

Experiments:
CCK2R [1] = target: T1, CCK2R (Rattus norvegicus, UniProt P30553); test: Small molecule blocking of PP-F11-FITC fluorescent signal in AR42J cells; type: cell-based; conditions: 100 nM PP-F11-FITC, antagonist at 50× the concentration of PP-F11-FITC, FIG. 1A
T1 construct: rat pancreatic AR42J cells, which are known to express CCK2R; endogenous in cells; host or cells: AR42J rat pancreatic cancer cell line
T1 sequence (P30553 1-452): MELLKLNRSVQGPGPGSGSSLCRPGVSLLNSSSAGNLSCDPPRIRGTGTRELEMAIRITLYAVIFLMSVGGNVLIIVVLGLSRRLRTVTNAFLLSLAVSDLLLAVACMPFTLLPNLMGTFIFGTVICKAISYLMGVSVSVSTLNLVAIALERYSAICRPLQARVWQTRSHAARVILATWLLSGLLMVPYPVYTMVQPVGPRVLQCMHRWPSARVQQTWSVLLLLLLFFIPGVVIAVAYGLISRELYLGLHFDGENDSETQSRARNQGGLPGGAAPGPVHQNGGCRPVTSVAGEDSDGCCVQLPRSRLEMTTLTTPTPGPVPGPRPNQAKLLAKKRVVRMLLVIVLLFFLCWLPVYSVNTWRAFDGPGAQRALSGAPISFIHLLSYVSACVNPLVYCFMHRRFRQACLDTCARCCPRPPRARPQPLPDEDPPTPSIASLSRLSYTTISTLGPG
Procedure: Small molecule antagonism of PP-F11 in AR42J and Panc1 cell lines was evaluated by measuring the intensity of a fluorescent (“FL”) signal of FL tagged PP-F11 in the presence or absence of small molecule inhibitors.
Each blocking agent was added in a 50× excess dose concentration to saturate available receptors.
FIG. 1A depicts small molecule blocking experiments performed in rat pancreatic AR42J cells, which are known to express CCK2R. 100 nM of a fluorescently labeled version of PP-F11 (PP-F11-FITC) was added to cell culture in the absence of or the presence of various small molecule CCK2 receptor antagonists at 50× the concentration of fluorescently labeled PP-F11. To determine blocking of PP-F11, the fluorescent intensity of fluorescently labeled PP-F11 was measured in each experiment.

CCK2R [2] = target: T1, CCK2R; test: Uptake of 177Lu-EVG321 by AR42J cells pre-treated with blocking agent (gamma counting); type: cell-based; conditions: 2 mM blocking agent (100× excess dose), pre-treated 1 hour, 200 fmols 177Lu-EVG321 per well, two-tailed t-test, FIG. 3A-C
Procedure: AR42J rat pancreatic cell line were used as they express the CCK2 receptor. The AR42J rat pancreatic cancer cell line was cultured in F-12K medium from ATCC with a final concentration of FBS of 20% (v/v). Medium was changed every 2-3 days and a sub-cultivation ratio of 1:3 was used to split the cells. […] 1×10^6AR42J cells were seeded per well in a 6 well plate in 2 mL of media (DMEM: F12+10% Fetal Bovine Serum (FBS)). Cells were stored at 37° C. in an incubator starting at time 0 for 24-48 hours (depending on cell adherence). On the day of experiment, 1 hour before adding the blocking agent, the medium was changed and replaced with 2 mL of fresh media, and incubated at 37° C. degrees for 1 hour. Once the 1-hour incubation was complete, 4 μL of blocking agent was added to each well to provide a final concentration of 2 mM (i.e., 100 times more concentrated than the radioactive molecule). The plate was gently shaken and incubated at 37° C. for 1 hour. […] Samples were then analyzed using a Hidex Gamma counter to measure counts from each tube (gamma peaks of ^177Lu at 113 keV and 208 keV, 5 minutes per tube counting). […] Radioactive uptake was measured as a fraction of the added radiation at time 0 and used to calculate relative binding in counts per minute (CPM). […]

Compound	fluorescent signal of PP-F11-FITC compared to experiment A (PP-F11-FITC only); decrease indicates blocking of PP-F11 binding (CCK2R [1])	specific uptake of 177Lu-EVG321 (relative uptake, CPM) versus cells without blocking agent (CCK2R [2])
CSCC[C@H](NC(=O)[C@H](Cc1c[nH]c2ccccc12)NC(=O)CNC(=O)[C@H](Cc1ccc(O)cc1)NC(=O)[C@H](C)NC(=O)[C@@H](CCC(=O)O)NC(=O)[C@@H](CCC(=O)O)NC(=O)[C@@H](CCC(=O)O)NC(=O)[C@@H](CCC(=O)O)NC(=O)[C@@H](CCC(=O)O)NC(=O)[C@H](N)CCC(=O)O)C(=O)N[C@@H](CC(=O)O)C(=O)N[C@@H](Cc1ccccc1)C(N)=O [PP-F11]	decrease in fluorescent signal	
CCCN(CCC)C(=O)C(CCC(=O)O)NC(=O)c1ccccc1 (stereo not shown) [proglumide, 4-benzamido-5-(dipropylamino)-5-oxopentanoic acid]		did not show as drastic and statistically significant reduction of uptake
CNc1cccc(NC(=O)N[C@@H]2N=C(c3ccccn3)c3ccccc3N(CC(=O)C(C)(C)C)C2=O)c1 [sograzepide, (R)-1-(1-(3,3-dimethyl-2-oxobutyl)-2-oxo-5-(pyridin-2-yl)-2,3-dihydro-1H-benzo[e][1,4]diazepin-3-yl)-3-(3-(methylamino)phenyl) urea]	decrease in fluorescent signal	significant decrease in the specific uptake
